Measured values reported in patent US20240024488A1, “COMPOUNDS AND USES THEREOF” (Foghorn Therapeutics Inc., priority 2020, published 2024).

Assays:
HiBit-BRM fusion protein = biological target: T1, HiBit-BRM fusion protein (Homo sapiens, UniProt P51531); experiment: HiBiT-BRM cell-based degradation assay (Nano-Glo HiBiT Lytic Detection, 24 h); settings: HeLa cell line expressing HiBiT-BRM; for DC50: read-out: BRM HiBit Degradation IC50
T1 construct: expressed in transfected cells
How it was run: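 Percent BRM loss was derived from HiBiT luminescence relative to DMSO-treated cells and cells given 2 μM of a known BRM/BRG1 degrader. Treatment lasted 24 h in HiBiT-BRM HeLa cells, with a top final concentration of 30 μM.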

[1] = biological target: T2, HiBit-BRG1 fusion protein (Homo sapiens, UniProt P51532); experiment: HiBiT-BRG1 cell-based degradation assay (Nano-Glo HiBiT Lytic Detection, 24 h); settings: HeLa cell line expressing HiBit-BRG1 and LgBit; for Dmax: read-out: BRG1 HiBit Degradation Maximum (%); for DC50: read-out: BRMG1 HiBit Degradation IC50
T2 construct: expressed in transfected cells
T2 sequence (P51532 whole entry, the tested form may be a part): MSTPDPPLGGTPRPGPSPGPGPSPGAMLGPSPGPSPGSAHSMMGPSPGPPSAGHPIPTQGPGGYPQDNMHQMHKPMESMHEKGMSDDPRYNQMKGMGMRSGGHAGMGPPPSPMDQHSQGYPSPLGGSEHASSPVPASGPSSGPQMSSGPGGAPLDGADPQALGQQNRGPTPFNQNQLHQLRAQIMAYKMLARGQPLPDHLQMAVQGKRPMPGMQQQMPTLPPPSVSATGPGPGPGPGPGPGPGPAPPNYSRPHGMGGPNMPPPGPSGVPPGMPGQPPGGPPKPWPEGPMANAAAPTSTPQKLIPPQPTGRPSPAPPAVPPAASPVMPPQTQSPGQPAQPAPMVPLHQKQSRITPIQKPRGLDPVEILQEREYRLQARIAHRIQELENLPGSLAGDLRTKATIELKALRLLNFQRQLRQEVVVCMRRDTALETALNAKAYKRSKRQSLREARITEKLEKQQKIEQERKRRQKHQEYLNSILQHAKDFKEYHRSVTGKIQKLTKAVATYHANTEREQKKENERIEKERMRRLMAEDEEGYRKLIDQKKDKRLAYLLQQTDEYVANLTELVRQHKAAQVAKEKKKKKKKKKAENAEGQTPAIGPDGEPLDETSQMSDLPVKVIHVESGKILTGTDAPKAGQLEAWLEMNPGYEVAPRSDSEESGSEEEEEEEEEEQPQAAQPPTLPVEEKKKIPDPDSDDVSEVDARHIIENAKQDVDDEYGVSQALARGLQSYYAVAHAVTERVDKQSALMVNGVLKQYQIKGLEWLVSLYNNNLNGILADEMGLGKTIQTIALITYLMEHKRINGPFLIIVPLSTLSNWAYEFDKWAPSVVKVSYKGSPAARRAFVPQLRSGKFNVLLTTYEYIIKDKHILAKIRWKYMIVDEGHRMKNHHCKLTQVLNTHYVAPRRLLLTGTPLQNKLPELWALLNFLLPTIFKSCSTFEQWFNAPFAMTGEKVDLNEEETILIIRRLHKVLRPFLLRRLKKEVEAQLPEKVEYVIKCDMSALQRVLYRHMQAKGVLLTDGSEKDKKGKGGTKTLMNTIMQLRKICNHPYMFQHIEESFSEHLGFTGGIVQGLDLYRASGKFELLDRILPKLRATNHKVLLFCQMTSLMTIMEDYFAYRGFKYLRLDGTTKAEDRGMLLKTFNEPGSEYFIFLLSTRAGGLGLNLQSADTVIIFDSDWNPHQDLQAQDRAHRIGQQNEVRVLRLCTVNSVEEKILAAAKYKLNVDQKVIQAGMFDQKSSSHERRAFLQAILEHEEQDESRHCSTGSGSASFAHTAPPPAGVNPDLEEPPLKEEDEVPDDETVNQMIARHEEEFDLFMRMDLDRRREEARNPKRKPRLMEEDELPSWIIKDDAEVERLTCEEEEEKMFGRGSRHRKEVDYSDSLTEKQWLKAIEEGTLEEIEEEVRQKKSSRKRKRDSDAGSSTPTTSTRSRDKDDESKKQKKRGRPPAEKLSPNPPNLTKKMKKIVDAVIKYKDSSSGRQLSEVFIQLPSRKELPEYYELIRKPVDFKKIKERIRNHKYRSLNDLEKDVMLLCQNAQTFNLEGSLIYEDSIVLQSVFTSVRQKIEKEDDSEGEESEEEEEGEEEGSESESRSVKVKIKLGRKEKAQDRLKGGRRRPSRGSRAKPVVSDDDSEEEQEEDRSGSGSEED
How it was run: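 HeLa cells stably expressing HiBit-BRG1 plus LgBit; compound exposure 24 h; Nano-Glo HiBiT lytic luminescence; % degradation vs DMSO (0%) and 2 μM standard BRM/BRG1 degrader (100%).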

T1 sequence (P51531 whole entry, the tested form may be a part): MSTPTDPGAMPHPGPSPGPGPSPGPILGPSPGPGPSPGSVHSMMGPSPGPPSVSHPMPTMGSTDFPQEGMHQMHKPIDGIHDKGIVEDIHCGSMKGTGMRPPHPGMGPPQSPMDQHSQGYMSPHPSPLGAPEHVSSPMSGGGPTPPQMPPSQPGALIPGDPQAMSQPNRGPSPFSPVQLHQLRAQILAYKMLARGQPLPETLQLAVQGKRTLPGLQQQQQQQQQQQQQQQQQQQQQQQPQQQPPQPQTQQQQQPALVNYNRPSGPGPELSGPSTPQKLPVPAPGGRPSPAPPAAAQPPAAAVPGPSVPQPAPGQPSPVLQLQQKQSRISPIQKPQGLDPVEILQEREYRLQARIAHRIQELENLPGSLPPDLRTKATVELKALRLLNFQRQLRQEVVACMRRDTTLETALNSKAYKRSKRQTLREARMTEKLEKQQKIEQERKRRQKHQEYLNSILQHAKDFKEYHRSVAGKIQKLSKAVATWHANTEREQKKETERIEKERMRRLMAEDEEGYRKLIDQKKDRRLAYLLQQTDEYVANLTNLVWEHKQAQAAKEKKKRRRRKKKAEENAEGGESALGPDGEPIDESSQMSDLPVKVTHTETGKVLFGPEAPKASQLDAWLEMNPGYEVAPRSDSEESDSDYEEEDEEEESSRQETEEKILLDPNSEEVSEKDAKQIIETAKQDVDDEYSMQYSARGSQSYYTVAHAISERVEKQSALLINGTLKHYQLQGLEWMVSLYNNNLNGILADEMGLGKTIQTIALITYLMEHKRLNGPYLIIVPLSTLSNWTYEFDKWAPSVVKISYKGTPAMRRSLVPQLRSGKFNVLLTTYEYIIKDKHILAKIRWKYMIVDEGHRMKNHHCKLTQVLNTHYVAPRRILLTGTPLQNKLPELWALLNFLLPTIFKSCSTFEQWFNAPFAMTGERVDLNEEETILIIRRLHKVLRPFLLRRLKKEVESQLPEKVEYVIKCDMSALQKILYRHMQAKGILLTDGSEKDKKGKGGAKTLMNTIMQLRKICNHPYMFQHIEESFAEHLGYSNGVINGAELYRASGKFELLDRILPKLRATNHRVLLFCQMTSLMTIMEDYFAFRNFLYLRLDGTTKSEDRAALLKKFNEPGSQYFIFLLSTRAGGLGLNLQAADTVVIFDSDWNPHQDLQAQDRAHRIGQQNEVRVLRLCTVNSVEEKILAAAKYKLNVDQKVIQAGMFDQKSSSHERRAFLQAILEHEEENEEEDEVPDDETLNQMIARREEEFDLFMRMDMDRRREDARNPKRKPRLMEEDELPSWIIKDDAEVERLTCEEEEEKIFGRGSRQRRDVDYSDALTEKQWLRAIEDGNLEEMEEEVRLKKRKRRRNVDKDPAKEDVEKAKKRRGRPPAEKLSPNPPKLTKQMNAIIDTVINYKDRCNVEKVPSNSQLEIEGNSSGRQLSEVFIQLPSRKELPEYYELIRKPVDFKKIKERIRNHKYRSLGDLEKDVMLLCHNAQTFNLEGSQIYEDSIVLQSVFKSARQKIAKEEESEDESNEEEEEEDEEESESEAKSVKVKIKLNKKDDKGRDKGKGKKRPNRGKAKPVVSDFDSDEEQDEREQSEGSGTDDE

Row | Structure (SMILES) | BRM HiBit Degradation Maximum (%) (HiBit-BRM fusion protein) | DC50 (HiBit-BRM fusion protein) [nM] | Dmax [1] [%] | DC50 [1] [nM]
1 | Cc1ncsc1-c1ccc([C@H](C)NC(=O)[C@@H]2C[C@@H](O)CN2C(=O)[C@@H](c2cc(OCCN3CCC(c4cc5cc(-c6ccccc6O)nnc5[nH]4)C3)no2)C(C)C)cc1 (mixture of isomers) [Compound 52, (2S,4R)-4-hydroxy-1-((2R)-2-(3-(2-(3-(3-(2-hydroxyphenyl)-7H-pyrrolo[2,3-c]pyridazin-6-yl)pyrrolidin-1-yl)ethoxy)isoxazol-5-yl)-3-methylbutanoyl)-N-((S)-1-(4-(4-methylthiazol-5-yl)phenyl)ethyl)pyrrolidine-2-carboxamide] | A (“A” indicates maximum degradation ≥ 75%) | > 10 | < 50 | –
2 | Cc1ncsc1-c1ccc([C@H](C)NC(=O)[C@@H]2C[C@@H](O)CN2C(=O)[C@@H](c2cc(N3C[C@@H]4C[C@H]3CN4C(=O)[C@H]3C[C@]4(Cc5cc(-c6ccccc6O)nnc5N4)C3)no2)C(C)C)cc1 (racemic) [Compound 78, (2S,4R)-4-hydroxy-1-((R)-2-(3-((1S,4S)-5-((1R,3r)-3′-(2-hydroxyphenyl)-5′,7′-dihydrospiro[cyclobutane-1,6′-pyrrolo[2,3-c]pyridazine]-3-carbonyl)-2,5-diazabicyclo[2.2.1]heptan-2-yl)isoxazol-5-yl)-3-methylbutanoyl)-N-((S)-1-(4-(4-methylthiazol-5-yl)phenyl)ethyl)pyrrolidine-2-carboxamide] | A (“A” indicates maximum degradation ≥ 75%) | > 100 | < 50 | –
3 | Cc1ncsc1-c1ccc(CNC(=O)[C@@H]2C[C@@H](O)CN2C(=O)[C@@H](NC(=O)CCCCCCCNCCC(=O)N2CC(c3cc4cc(-c5ccccc5O)nnc4[nH]3)C2)C(C)(C)C)cc1 (racemic) [Compound 66, (2S,4R)-4-hydroxy-1-((S)-2-(8-((3-(3-(3-(2-hydroxyphenyl)-7H-pyrrolo[2,3-c]pyridazin-6-yl)azetidin-1-yl)-3-oxopropyl)amino)octanamido)-3,3-dimethylbutanoyl)-N-(4-(4-methylthiazol-5-yl)benzyl)pyrrolidine-2-carboxamide] | C (“C” indicates maximum degradation < 50%) | – | < 50 | –
4 | Cc1ncsc1-c1ccc([C@H](C)NC(=O)[C@@H]2C[C@@H](O)CN2C(=O)[C@@H](c2cc(CCCN3CC(c4cc5cc(-c6ccccc6O)nnc5[nH]4)C3)no2)C(C)C)cc1 (single isomer, unassigned) [Compound 204] | A (“A” indicates maximum degradation ≥ 75%) | > 100 | < 50 | –
5 | Cc1ncsc1-c1ccc([C@H](C)NC(=O)[C@@H]2C[C@@H](O)CN2C(=O)[C@@H](c2cc(OCCNC3CC[C@]34C[C@@H](c3cc5cc(-c6ccccc6O)nnc5[nH]3)C4)no2)C(C)C)cc1 (mixture of isomers) [Compound 133, (2S,4R)-4-hydroxy-1-((R)-2-(3-(2-(((1S,4r,6R)-6-(3-(2-hydroxyphenyl)-7H-pyrrolo[2,3-c]pyridazin-6-yl)spiro[3.3]heptan-1-yl)amino)ethoxy)isoxazol-5-yl)-3-methylbutanoyl)-N-((S)-1-(4-(4-methylthiazol-5-yl)phenyl)ethyl)pyrrolidine-2-carboxamide] | A (“A” indicates maximum degradation ≥ 75%) | > 10 | > 50 | > 100
6 | Cc1ncsc1-c1ccc([C@H](C)NC(=O)[C@@H]2C[C@@H](O)CN2C(=O)[C@@H](c2cc(OCCN3CC(Cc4cc5cc(-c6ccccc6O)nnc5[nH]4)C3)no2)C(C)C)cc1 (racemic) [Compound 294, (2S,4R)-4-hydroxy-1-((R)-2-(3-(2-(3-((3-(2-hydroxyphenyl)-7H-pyrrolo[2,3-c]pyridazin-6-yl)methyl)azetidin-1-yl)ethoxy)isoxazol-5-yl)-3-methylbutanoyl)-N-((S)-1-(4-(4-methylthiazol-5-yl)phenyl)ethyl)pyrrolidine-2-carboxamide] | A (“A” indicates maximum degradation ≥ 75%) | > 100 | < 50 | –
7 | Cc1ncsc1-c1ccc([C@H](C)NC(=O)[C@@H]2C[C@@H](O)CN2C(=O)[C@@H](c2cc(OCCCN3CC(c4cc5cc(-c6ccccc6O)nnc5[nH]4)C3)no2)C(C)C)cc1 (single isomer, unassigned) [Compound 237] | C (“C” indicates maximum degradation < 50%) | – | < 50 | –
8 | Cc1ncsc1-c1ccc([C@H](C)NC(=O)[C@@H]2C[C@@H](O)CN2C(=O)[C@@H](c2cc(N3CCN(C(=O)CN4CC(c5cc6cc(-c7ccccc7O)nnc6[nH]5)C4)CC3)no2)C(C)C)cc1 (racemic) [Compound 269, (2S,4R)-4-hydroxy-1-((R)-2-(3-(4-(2-(3-(3-(2-hydroxyphenyl)-7H-pyrrolo[2,3-c]pyridazin-6-yl)azetidin-1-yl)acetyl)piperazin-1-yl)isoxazol-5-yl)-3-methylbutanoyl)-N-((S)-1-(4-(4-methylthiazol-5-yl)phenyl)ethyl)pyrrolidine-2-carboxamide] | A (“A” indicates maximum degradation ≥ 75%) | > 10 | > 75 | > 100
9 | Cc1ncsc1-c1ccc([C@H](C)NC(=O)[C@@H]2C[C@@H](O)CN2C(=O)[C@@H](c2cc(OCCCN3CC(c4[nH]c5nnc(-c6ccccc6O)cc5c4C)C3)no2)C(C)C)cc1 (racemic) [Compound 229, (2S,4R)-4-hydroxy-1-((R)-2-(3-(3-(3-(3-(2-hydroxyphenyl)-5-methyl-7H-pyrrolo[2,3-c]pyridazin-6-yl)azetidin-1-yl)propoxy)isoxazol-5-yl)-3-methylbutanoyl)-N-((S)-1-(4-(4-methylthiazol-5-yl)phenyl)ethyl)pyrrolidine-2-carboxamide] | A (“A” indicates maximum degradation ≥ 75%) | > 1000 | < 50 | –
10 | Cc1ncsc1-c1ccc([C@H](C)NC(=O)[C@@H]2C[C@@H](O)CN2C(=O)[C@@H](c2cc(OCCN3CC(c4[nH]c5nnc(-c6ccccc6O)cc5c4Br)C3)no2)C(C)C)cc1 (racemic) [Compound 120] | A (“A” indicates maximum degradation ≥ 75%) | > 10 | < 50 | –
11 | Cc1ncsc1-c1ccc([C@H](C)NC(=O)[C@@H]2C[C@@H](O)CN2C(=O)[C@@H](c2cc(OCCNC34CC(c5cc6cc(-c7ccccc7O)nnc6[nH]5)(C3)C4)no2)C(C)C)cc1 (racemic) [Compound 53, (2S,4R)-4-hydroxy-1-((R)-2-(3-(2-((3-(3-(2-hydroxyphenyl)-7H-pyrrolo[2,3-c]pyridazin-6-yl)bicyclo[1.1.1]pentan-1-yl)amino)ethoxy)isoxazol-5-yl)-3-methylbutanoyl)-N-((S)-1-(4-(4-methylthiazol-5-yl)phenyl)ethyl)pyrrolidine-2-carboxamide] | A (“A” indicates maximum degradation ≥ 75%) | > 10 | > 75 | > 10
12 | Cc1ncsc1-c1ccc([C@H](C)NC(=O)[C@@H]2C[C@@H](O)CN2C(=O)[C@@H](c2cc(N3CCC(c4cnc(N5CCC(c6c[nH]c7nnc(-c8ccccc8O)cc67)CC5)nc4)CC3)no2)C(C)C)cc1 (single isomer, unassigned) [Compound 92] | A (“A” indicates maximum degradation ≥ 75%) | > 10 | > 75 | > 10
13 | Cc1ncsc1-c1ccc([C@H](C)NC(=O)[C@@H]2C[C@@H](O)CN2C(=O)[C@@H](c2cc(OCCN3CCC[C@@H](c4c[nH]c5nnc(-c6ccccc6O)cc45)C3)no2)C(C)C)cc1 (racemic) [Compound 283, (2S,4R)-4-hydroxy-1-((R)-2-(3-(2-((S)-3-(3-(2-hydroxyphenyl)-7H-pyrrolo[2,3-c]pyridazin-5-yl)piperidin-1-yl)ethoxy)isoxazol-5-yl)-3-methylbutanoyl)-N-((S)-1-(4-(4-methylthiazol-5-yl)phenyl)ethyl)pyrrolidine-2-carboxamide] | B (“B” indicates maximum degradation ≥ 50%) | > 10 | < 50 | –
14 | Cc1ncsc1-c1ccc([C@H](C)NC(=O)[C@@H]2C[C@@H](O)CN2C(=O)[C@@H](c2cc(OCCNC34CC(c5[nH]c6nnc(-c7ccccc7O)cc6c5C)(C3)C4)no2)C(C)C)cc1 (racemic) [Compound 220, (2S,4R)-4-hydroxy-1-((R)-2-(3-(2-((3-(3-(2-hydroxyphenyl)-5-methyl-7H-pyrrolo[2,3-c]pyridazin-6-yl)bicyclo[1.1.1]pentan-1-yl)amino)ethoxy)isoxazol-5-yl)-3-methylbutanoyl)-N-((S)-1-(4-(4-methylthiazol-5-yl)phenyl)ethyl)pyrrolidine-2-carboxamide] | A (“A” indicates maximum degradation ≥ 75%) | < 10 | > 75 | > 10
15 | Cc1ncsc1-c1ccc([C@H](C)NC(=O)[C@@H]2C[C@@H](O)CN2C(=O)[C@@H](NC(=O)CCCCCCCCCCC(=O)N2CC(c3cc4cc(-c5ccccc5O)nnc4[nH]3)C2)C(C)(C)C)cc1 [Compound 13, (2S,4R)-4-hydroxy-1-((S)-2-(12-(3-(3-(2-hydroxyphenyl)-7H-pyrrolo[2,3-c]pyridazin-6-yl)azetidin-1-yl)-12-oxododecanamido)-3,3-dimethylbutanoyl)-N-((S)-1-(4-(4-methylthiazol-5-yl)phenyl)ethyl)pyrrolidine-2-carboxamide] | A (“A” indicates maximum degradation ≥ 75%) | > 100 | < 50 | –
